Laboratory results as given in patent publication US20090191183A1, “SUBSTITUTED INDOLES” (AUSPEX PHARMACEUTICALS, INC., priority 2007, published 2009).
Values belong to the compound of their own block, whether it stands above or below them.

How the values were obtained:
[1] = In vitro human liver microsomal (HLM) stability assay; type: in vitro ADME; conditions: vs non-isotopically enriched drug; 1 mg per mL liver microsome protein, 1 μM, 37° C.; + marks the range of the column head
Method: Liver microsomal stability assays are conducted at 1 mg per mL liver microsome protein with an NADPH-generating system in 2% NaHCO3 (2.2 mM NADPH, 25.6 mM glucose 6-phosphate, 6 units per mL glucose 6-phosphate dehydrogenase and 3.3 mM MgCl2). Test compounds are prepared as solutions in 20% acetonitrile-water and added to the assay mixture (final assay concentration 1 μM) and incubated at 37° C. Final concentration of acetonitrile in the assay should be <1%. Aliquots (50 μL) are taken out at times 0, 7.5, 15, 22.5, and 30 min, and diluted with ice cold acetonitrile (200 μL) to stop the reactions. Samples are centrifuged at 12,000 RPM for 10 min to precipitate proteins. Supernatants are transferred to micro centrifuge tubes and stored for LC/MS/MS analysis of the degradation half-life of the test compounds.

[2] = treatment of mild to moderate asthma; cited from earlier work
cytochrome P450 CYP3A4 = target: T1, cytochrome P450 CYP3A4 (Homo sapiens, UniProt P08684); conditions: human liver microsomes; at concentrations near clinically achieved total plasma concentrations; cited from earlier work
T1 construct: in vitro studies using human liver microsomes; from tissue; host or cells: human liver microsomes

cytochrome P450 CYP2C9 = target: T2, cytochrome P450 CYP2C9 (Homo sapiens, UniProt P11712); conditions: human liver microsomes; at concentrations near clinically achieved total plasma concentrations; cited from earlier work
T2 construct: in vitro studies using human liver microsomes; from tissue; host or cells: human liver microsomes
T2 sequence (P11712 whole entry): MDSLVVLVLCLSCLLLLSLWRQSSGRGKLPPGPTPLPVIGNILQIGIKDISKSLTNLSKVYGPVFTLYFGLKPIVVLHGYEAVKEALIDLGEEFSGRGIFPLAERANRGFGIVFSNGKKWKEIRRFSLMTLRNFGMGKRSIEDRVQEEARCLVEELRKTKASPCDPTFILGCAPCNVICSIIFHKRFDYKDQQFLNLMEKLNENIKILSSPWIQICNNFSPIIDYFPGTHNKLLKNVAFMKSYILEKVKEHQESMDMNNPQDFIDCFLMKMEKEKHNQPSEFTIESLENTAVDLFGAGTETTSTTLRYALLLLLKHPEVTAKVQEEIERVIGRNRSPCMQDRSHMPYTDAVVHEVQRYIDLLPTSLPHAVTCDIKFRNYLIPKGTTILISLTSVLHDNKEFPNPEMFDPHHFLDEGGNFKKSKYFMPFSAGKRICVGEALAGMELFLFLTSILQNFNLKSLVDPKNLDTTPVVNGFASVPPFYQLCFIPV

T1 sequence (P08684 whole entry): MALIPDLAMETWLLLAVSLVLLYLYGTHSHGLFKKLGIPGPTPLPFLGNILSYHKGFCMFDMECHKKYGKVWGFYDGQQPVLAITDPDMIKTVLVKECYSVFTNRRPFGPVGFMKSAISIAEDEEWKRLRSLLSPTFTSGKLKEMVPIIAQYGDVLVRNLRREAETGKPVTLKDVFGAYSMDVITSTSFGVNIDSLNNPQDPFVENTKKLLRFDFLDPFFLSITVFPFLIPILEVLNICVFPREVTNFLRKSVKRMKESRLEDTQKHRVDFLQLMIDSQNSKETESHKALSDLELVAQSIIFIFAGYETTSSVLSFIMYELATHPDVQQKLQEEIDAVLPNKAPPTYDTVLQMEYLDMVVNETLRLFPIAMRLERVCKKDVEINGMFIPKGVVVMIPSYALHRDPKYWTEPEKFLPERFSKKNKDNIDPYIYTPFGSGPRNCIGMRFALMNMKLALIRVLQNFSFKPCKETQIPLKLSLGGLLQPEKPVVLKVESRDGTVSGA

- % increase of HLM degradation half-life, 5%-15% [1]: + (5%-15%)
SMILES: COc1cc(C(=O)NS(=O)(=O)c2ccccc2C)ccc1Cc1cn(C)c2ccc(NC(=O)OC3CCCC3)cc12 [Example 1, reference compound]

- % increase of HLM degradation half-life, 15%-25% [1]: + (15%-25%)
SMILES: [2H]C([2H])([2H])n1cc(Cc2ccc(C(=O)NS(=O)(=O)c3ccccc3C)cc2OC)c2cc(NC(=O)OC3CCCC3)ccc21 [Example 4]

- % increase of HLM degradation half-life, 15%-25% [1]: + (15%-25%)
SMILES: [2H]C([2H])([2H])c1ccccc1S(=O)(=O)NC(=O)c1ccc(Cc2cn(C)c3ccc(NC(=O)OC4CCCC4)cc23)c(OC)c1 [Example 3]

The remaining lines, values behind:

SMILES: [2H]C([2H])([2H])Oc1cc(C(=O)NS(=O)(=O)c2ccccc2C)ccc1Cc1cn(C)c2ccc(NC(=O)OC3CCCC3)cc12 [Example 2]
- % increase of HLM degradation half-life, 5%-15% [1]: + (5%-15%)

SMILES: COc1cc(C(=O)NS(=O)(=O)c2ccccc2C)ccc1Cc1cn(C)c2ccc(NC(=O)OC3CCCC3)cc12 [zafirlukast, 4-(5-cyclopentyloxy-carbonylamino-1-methyl-indol-3-ylmethyl)-3-methoxy-N—O-tolylsulfonylbenzamide]
- hepatotoxicity [2]: occasional idiosyncratic hepatotoxicity
- inhibition of cytochrome P450 CYP3A4 isoenzyme (cytochrome P450 CYP3A4): inhibits
- inhibition of cytochrome P450 CYP2C9 isoenzyme (cytochrome P450 CYP2C9): inhibits

SMILES: [2H]C([2H])([2H])Oc1cc(C(=O)NS(=O)(=O)c2ccccc2C([2H])([2H])[2H])ccc1Cc1cn(C([2H])([2H])[2H])c2ccc(NC(=O)OC3([2H])C([2H])([2H])C([2H])([2H])C([2H])([2H])C3([2H])[2H])cc12 [Example 6]
- % increase of HLM degradation half-life, 15%-25% [1]: + (15%-25%)

SMILES: [2H]C([2H])([2H])Oc1cc(C(=O)NS(=O)(=O)c2ccccc2C([2H])([2H])[2H])ccc1Cc1cn(C([2H])([2H])[2H])c2ccc(NC(=O)OC3CCCC3)cc12 [Example 7]
- % increase of HLM degradation half-life, column >25% [1]: + (>25%)
